# Source: patent US20050239891A1, “Use of citrulline within the framework of intestinal insufficiency” (priority 2003, published 2005)
# Key:
# [1] = system: rats that have undergone an intestinal resection (short-bowel syndrome model); test: Short-bowel syndrome model: enteral nutrition supplemented with citrulline or arginine after intestinal resection; assay type: in vivo, Wistar rats; conditions: for weight gain: resected rats (approx. 80% of small intestine), after 10 days of enteral nutrition, L-citrulline 1 g/kg/day or L-arginine 0.994 g/kg/day, AANE approx. 15 g, SHAM approx. 21 g (FIG. 1)
# Text: The rat was chosen as model to evaluate the effect of supplementation with citrulline within the framework of an intestinal insufficiency and in particular within the framework of the short-bowel syndrome.
# 24 Wistar rats weighing approximately 220-230 g were used. They were acclimatized in metabolic cages for 5 days before being operated on; during this period they had free access to water and standard laboratory food.
# The intakes of L-arginine and L-citrulline correspond to those used in humans taking account of the difference in metabolic rate between the two species (rate approximately 10 times higher in the rat).
# Enteral nutrition was carried out for 10 days continuously by the insertion of a gastric probe. The nitrogen intake was 2 g/kg/day and the calorie intake 290 kcal/kg/day. The food rations were rendered isonitrogenous by intake of a mixture of non-essential amino acids (Gly, Ala, Ser, His, Pro, Asn) (Sigma-Aldrich).
# Three types of measurements were carried out in particular: a daily measurement of the weight of the animals, a measurement of the concentration of arginine in the plasma at the end of the experiment by ion-exchange chromatography using a JEOL device and a daily monitoring of the cumulative nitrogen balance by adding up the daily differences between the quantity of nitrogen absorbed and the quantity of nitrogen evacuated in the urine by pyroluminescence using an ANTEK apparatus.
# [2] = system: elderly malnourished rats; test: Tibialis muscle amino acid content in malnourished aged rats after renutrition; assay type: in vivo, Sprague-Dawley rats; conditions: diet enriched with L-citrulline 5 g/kg/d for a week, average ± SDM, p<0.05 vs AL, R and AANE
# Experimental: (§1) Male Sprague-Dawley rats (Charles River Laboratories, L'Arbresles, France) aged 19 months were placed in individual cages, in a thermostatically controlled ambience (23°±1° C.), and subjected to a 12-hour light-darkness cycle (darkness from 08.00 hours to 20.00 hours). Their acclimatization was carried out over 2 weeks, during which their spontaneous food consumption was measured. They were fed a standard diet (A04, UAR, Villemoisson-sur-Orge, France) containing 17% proteins, 3% lipids, 59% carbohydrates and 21% water, fibres, vitamins and minerals. The average food intake during this period is 34.4 g/day.
# (§2) After the acclimatization period, the rats were divided into 4 groups (cf. FIG. 5): a control group comprising rats (n=10) fed ad libitum (AL) for 12 weeks and 3 other groups subjected to a food restriction during the same period, i.e. fed with only 50% of the spontaneous ingesta (i.e. 17.2 g), with the standard diet (UAR A04).
# (§3) At the end of the restriction period, the animals (n=10) in one group were […] sacrificed (group R) and the rats of the two remaining groups were fed for a week with 90% of the spontaneous ingesta (i.e. 30.9 g), either on a diet enriched with non-essential amino acids (AANE group: alanine, asparagine, glycine, serine, histidine, and proline supplied in equimolar fashion) or on a diet enriched with L-citrulline (5 g/kg/d) (citrulline group). The intakes of the two groups were isonitrogenous and isocaloric. The limitation to 90% of the spontaneous intakes makes it possible to be certain that the rats consume all of the food offered to them (Walrand et al., 2000).
# The 2 Tibialis muscles (TIB) were removed in order to determine on the one hand the protein and amino acid content (right TIB) and on the other hand, the fractional (FSR) and absolute (ASR) protein synthesis rates (left TIB). […]
# (§4) The results are presented in the form of an average ±standard deviation from the mean (SDM). The results are analyzed by an ANOVA followed by an a posteriori Duncan test. […]
# [3] = system: elderly malnourished rats; test: Tibialis muscle protein synthesis rate (13C-valine incorporation) in malnourished aged rats after renutrition; assay type: in vivo, Sprague-Dawley rats; conditions: L-citrulline 5 g/kg/d for a week
# Experimental: as §1
# as §2, with “A04). […]” for “A04).”
# The synthesis rate was determined on the TIB by the method of injecting a dose of a tracer amino acid charge. […]
# [4] = system: elderly malnourished rats; test: Plasma amino acid concentrations in malnourished aged rats after renutrition; assay type: in vivo, Sprague-Dawley rats; conditions: diet enriched with L-citrulline 5 g/kg/d for a week, average ± SDM, p<0.05 vs AL, R and AANE
# Experimental: as §1, §2, §3
# (§5) At the end of the experimental period, the rats, in post-absorptive situation, were anaesthetized with isoflurane (3%) and received a subcutaneous injection of ^13C-valine at variable times before being killed by decapitation.
# (§6) The blood was collected on heparin and centrifuged (3500 rpm, at +4° C. for 15 minutes). […]
# as §4
# [5] = as above; assay type: in vivo, Sprague-Dawley rats; conditions: male, Sprague-Dawley, rat, plasma, oral; elderly malnourished rats, diet enriched with L-citrulline 5 g/kg/d for a week; average ± SDM; p<0.05 vs AL, R and AANE
# Experimental: as §1, §2, §3, §5, §6, §4
# [6] = system: elderly malnourished rats; test: Tibialis muscle protein content (Gornall method) in malnourished aged rats after renutrition; assay type: in vivo, Sprague-Dawley rats; conditions: after renutrition phase, L-citrulline 5 g/kg/d for a week; CIT vs AL, R, AANE, p<0.05 (FIG. 4)
# Experimental: as §1
# as §2, with “A04). […]” for “A04).”
# Determination of the protein content was carried out on the TIB. […] The proteins content of the TIB is measured by the Gornall method. […]
# as §4
SMILES,weight gain [1],"concentration of arginine in the plasma ([1]; resected rats, after 10 days of supplemented enteral nutrition, compared with SHAM control (FIG. 2))",Concentration of Arginine in the TIB [2],Concentration of Citrulline in the TIB [2],Concentration of Ornithine in the TIB [2],fractional protein synthesis rate (FSR) in the Tibialis muscle ([3]; compared with the other groups (FIG. 5A)),"absolute protein synthesis rate (ASR) in the Tibialis muscle ([3]; CIT vs R and AANE, p<0.05 (FIG. 5B))","cumulative nitrogen balance ([1]; resected rats, 10 days of supplemented enteral nutrition, compared with SHAM control (FIG. 3))",Concentration of Ornithine in the plasma [4],concentration of arginine in the plasma [4],concentration at 1 week [5],protein concentrations in the TIB [6]
"N=C(N)NCCC[C@H](N)C(=O)O [ARG, L-arginine, reference compound]",approximately 17 g,increase the concentration of arginine in the plasma compared with the control,,,,,,,,,,
"NC(=O)NCCC[C@H](N)C(=O)O [CIT, L-citrulline]",approximately 21 g,,203 ± 35 nmol/g,616 ± 104 nmol/g,20 ± 4 nmol/g,does not seem significant,significant increase,"re-establish a nitrogen balance in the animals that have undergone resection, at the same level as that of the control group",223 ± 27 µmol/L,561 ± 55 µmol/L,2390 ± 279 µM,significant increase
